Patent US11110084B2, “Opioid formulations” (Camurus AB, priority 2012, dated 2021)

Details: disodium fluorescein 5 mg/g, 0.1 g in 2 ml PBS

## O=C([O-])c1ccccc1-c1c2ccc(=O)cc-2oc2cc([O-])ccc12.[Na+].[Na+] [Fluo, disodium fluorescein]
  % release (37° C.) 72 h: about 0.4%
